Reference: patent publication US20050020542A1, “Method of modulating sodium ion absorption in epithelial cells” (priority 2001, published 2005)

Experiments:
[1] = system: calcium-activated Cl- channel; test: Perforated patch whole cell recording of Cl- current; type: cell-based, human
Experimental: In FIGS. 4A and 4B, the response to 10 μM INO-E2 is contrasted with the response to ATP.

human CF nasal epithelia = test: Blue Dextran volume transport assay (fluid absorption); type: cell-based; conditions: for inhibition of fluid absorption, dose response: Blue Dextran Assay, 18 hrs apical exposure
Description: In normal human airway epithelia, Na^+ and Cl^− currents (CFTR and Ca^2+-activated Cl^− currents) contribute to airway surface liquid (ASL) fluid volume regulation depending on signaling equilibria. In contrast, in human CF airway epithelia, Na^+ currents through ENaC dominate basal ASL volume regulation accompanied by a relatively minor contribution through Ca^2+-activated Cl^− currents. The combination of enhanced ENaC currents and transient Ca^2+-activated Cl^− currents in CF result in an inadequate hydration of the ASL and reduction of mucociliary clearance. Since INO-E2 reduces Na^+ transport through ENaC, we hypothesized that INO-E2 would have a functional effect, similar to amiloride, and inhibit fluid absorption. To test this hypothesis, we exposed well differentiated monolayer cultures of CF nasal epithelia to an apically applied buffer containing INO-E2 and a known concentration of the non-permeable molecule Blue Dextran (BD). The resulting reduction in the ability of these monolayers to concentrate BD was taken as a functional indicator of INO-E2's involvement in the inhibition of ENaC.
HEPES Modified Ringer's Buffer (HMRB) was used for these assays. HMRB was sterilized by positive pressure filtration through a 0.2 um syringe tip filter (Gelman acrodisc). The BD stock solution was aseptically prepared with sterile buffer (2 mg BD/ml buffer). Compounds to be tested were solubilized in sterile HMRB containing 1 μM BD (final concentration of vehicle is 0.1% (1:1, DMSO+DMSO containing 5% pluronic-F127). […] A standard concentration curve was obtained by determining the optical densities of a serial dilution of 10 μM Blue Dextran in HMRB placed in a Falcon 3027 96-well plate. The optical density of BD in the solution was obtained by analysis at 660 nm in a Packard Spectracount. Standards and samples were analyzed on the same plate. 50 μl volumes were used for all samples and standards. The [BD] of the samples was determined by extrapolation from the standard curve using the Packard I-Smart software. The increase in [BD] from the starting value of 1 μM was taken to be an indication of the magnitude of volume absorption occurring across the monolayer. The rate of absorption was calculated by dividing the change in volume by the duration of the experiment. This value was normalized to a surface area of 1 cm^2, to give μl·cm^2−1·hr^−1. To address evaporative loss, which would appear in the data as artificially high absorptive rates, dummy membranes were constructed by attaching a thin Sylgard sheet to snapwells/transwells with silicon sealant. These dummy membranes were used in parallel with the epithelial monolayers to assess evaporative loss for each experiment.

SMILES: O=C(O)c1cccnc1Nc1cccc(C(F)(F)F)c1 [niflumic acid, reference compound]
- block of INO-E2 mediated whole cell current ([1]; 100 μM): completely blocked

SMILES: N=C(N)NC(=O)c1nc(Cl)c(N)nc1N [amiloride, reference compound]
- inhibition of fluid absorption, dose response (human CF nasal epithelia): inhibited fluid absorption measured by the Blue Dextran assay in a dose dependent fashion

SMILES: CCCC(=O)OC1C(OP(=O)(OCOC(=O)CC)OCOC(=O)CC)C(OC(=O)CCC)C(OP(=O)(OCOC(=O)CC)OCOC(=O)CC)C(OC(=O)CCC)C1OP(=O)(OCOC(=O)CC)OCOC(=O)CC (stereo not shown) [INO-4992, 2,4,6-tri-O-butyryl-myo-inositol 1,3,5-trisphosphate hexakis (propionoxymethyl) ester]
- potency on fluid absorption relative to 100 μM amiloride (human CF nasal epithelia; 5 uM): nearly as potent as 100 μM amiloride
- inhibition of fluid absorption, dose response (human CF nasal epithelia): dose dependent inhibition of fluid absorption

SMILES: CCC(=O)OCOP(=O)(OCOC(=O)CC)OC1C2OC3(CC4CCC3(C)C4(C)C)OC2C(OP(=O)(OCOC(=O)CC)OCOC(=O)CC)C(OP(=O)(OCOC(=O)CC)OCOC(=O)CC)C1OP(=O)(OCOC(=O)CC)OCOC(=O)CC (stereo not shown) [INO-4996, 1,2-camphanylidene-myo-inositol 3,4,5,6-tetrakisphosphate octakis (propionoxymethyl) ester]
- inhibition of fluid absorption, dose response (human CF nasal epithelia): dose dependent inhibition of fluid absorption

SMILES: CCCCCCCCOC1C(OC(=O)CCC)C(OP(=O)(OCOC(=O)CC)OCOC(=O)CC)C(OP(=O)(OCOC(=O)CC)OCOC(=O)CC)C(OP(=O)(OCOC(=O)CC)OCOC(=O)CC)C1OP(=O)(OCOC(=O)CC)OCOC(=O)CC (stereo not shown) [INO-4987, 2-O-butyryl-3-O-octyl-myo-inositol 1,4,5,6-tetrakisphosphate octakis (propionoxymethyl) ester]
- inhibition of fluid absorption, dose response (human CF nasal epithelia): dose dependent inhibition of fluid absorption

SMILES: CCC(=O)OCOP(=O)(OCOC(=O)CC)OC1C2OC3(CC4CCC3(C)C4(C)C)OC2C(OP(=O)(OCOC(=O)CC)OCOC(=O)CC)C(OP(=O)(OCOC(=O)CC)OCOC(=O)CC)C1OP(=O)(OCOC(=O)CC)OCOC(=O)CC (stereo not shown) [INO-4984, 2,3-camphanylidene-myo-inositol 1,4,5,6-tetrakisphosphate octakis (propionoxymethyl) ester]
- potency on fluid absorption relative to 100 μM amiloride (human CF nasal epithelia; 100 μM): more potent than 100 μM amiloride
- inhibition of fluid absorption, dose response (human CF nasal epithelia): dose dependent inhibition of fluid absorption

SMILES: CCCC(=O)OC1C(OP(=O)(OCOC(=O)CC)OCOC(=O)CC)C(OC(=O)CCC)C(OP(=O)(OCOC(=O)CC)OCOC(=O)CC)C(OP(=O)(OCOC(=O)CC)OCOC(=O)CC)C1OP(=O)(OCOC(=O)CC)OCOC(=O)CC (stereo not shown) [INO-230, 2,6-Di-O-butyryl-myo-inositol 1,3,4,5-tetrakisphosphate octakis(propionoxymethyl) ester]
- inhibition of fluid absorption 42 hrs after exposure (human CF nasal epithelia; 10 μM, 2 hr exposure, measured 42 hrs after): significantly inhibits
- change of potency on fluid absorption with repeat administration (human CF nasal epithelia; 2 hours each day for 8 days at 0.1 μM or 1 μM, n=6): enhancement of compound potency
- inhibition of fluid absorption, dose response (human CF nasal epithelia): dose dependent inhibition of fluid absorption
- relative potency on fluid absorption after pulsed exposure (human CF nasal epithelia; INO-230 vs INO-E2): more potent than INO-E2
- duration of effect on fluid secretion following a brief (pulsed) exposure (human CF nasal epithelia; pulsed exposure, FIG. 17): prolonged effects
- potency of inhibition of fluid absorption on repeated exposure (human CF nasal epithelia; repeated apical low doses over 96-192 hours, FIG. 17): nanomolar range

SMILES: CCCC(=O)OC1C(OCCCc2ccccc2)C(OP(=O)(OCOC(=O)CC)OCOC(=O)CC)C(OP(=O)(OCOC(=O)CC)OCOC(=O)CC)C(OP(=O)(OCOC(=O)CC)OCOC(=O)CC)C1OP(=O)(OCOC(=O)CC)OCOC(=O)CC (stereo not shown) [INO-4997, 2-O-butyryl-1-O-(3-phenylpropyl)-myo-inositol 3,4,5,6-tetrakis-phosphate octakis (propionoxymethyl) ester]
- activity on fluid absorption as share of activity of 100 μM amiloride (human CF nasal epithelia; 1 μM): 50%
- inhibition of fluid absorption, dose response (human CF nasal epithelia): dose dependent inhibition of fluid absorption

SMILES: Nc1ncnc2c1ncn2[C@@H]1O[C@H](COP(=O)(O)OP(=O)(O)OP(=O)(O)O)[C@@H](O)[C@H]1O [ATP, adenosine triphosphate, reference compound]
- further increase in whole cell chloride current after INO-E2 ([1]; ATP contrasted with 10 μM INO-E2): no further increase

SMILES: CCCC(=O)OC1C(OC(=O)CCC)C(OP(=O)(OCOC(=O)CC)OCOC(=O)CC)C(OP(=O)(OCOC(=O)CC)OCOC(=O)CC)C(OC(=O)CCC)C1OP(=O)(OCOC(=O)CC)OCOC(=O)CC (stereo not shown) [INO-4982, 2,3,5-tri-O-butyryl-myo-inositol 1,4,6-trisphosphate hexakis (propionoxymethyl) ester]
- inhibition of fluid absorption, dose response (human CF nasal epithelia): dose dependent inhibition of fluid absorption

SMILES: CCCC(=O)OC1C(OC(=O)CCC)C(OP(=O)(OCOC(=O)CC)OCOC(=O)CC)C(OP(=O)(OCOC(=O)CC)OCOC(=O)CC)C(OC(=O)CCC)C1OP(=O)(OCOC(=O)CC)OCOC(=O)CC (stereo not shown) [INO-4981, 1,2,5-tri-O-butyryl-myo-inositol 3,4,6-trisphosphate hexakis (propionoxymethyl) ester]
- inhibition of fluid absorption, dose response (human CF nasal epithelia): dose dependent inhibition of fluid absorption
